Consider five compounds from US20090131519A1 (priority 2005, published 2009).

Assay [1] concerns Fusarium graminearum (strain 4528). As to conditions: cited from earlier work.
Assay [2] has as its system Fusarium graminearum. Conditions: in vivo; cited from earlier work.
For assay [3], the system named is Fusarium fungi. The assay can be described thus: Field trial, winter wheat "Slade", Ulhówek (Poland) 2004: natural Fusarium ear infection, DON and ZEA content of grains (HPLC/MS), grain yield. The class given is in vivo. Conditions: for ZEA content of the grains / Infection (ears infected by Fusarium fungi) / Grain yield: dose prohexadione-Ca 50, metconazole 90; for ZEA content of the grains: relative to untreated = 100% (0.073 mg per kg of harvested grains); for Infection (ears infected by Fusarium fungi): relative to untreated = 100% (4.5% of the ears infected), assessed Jul. 22, 2004; for Grain yield: relative to untreated = 100% (8.6 t/ha).

Assay [4] has as its system Fusarium fungi. The assay can be described thus: Field trial, winter wheat "Ritmo", Gronau 2004: natural Fusarium ear infection, DON and NIV content of grains (HPLC/MS), grain yield. The format is in vivo.
The subject of assay [5] is mildew. As to conditions: pre-treatment; cited from earlier work.

Turning to `COc1ccc(C(O)(c2cncnc2)C2CC2)cc1` (centres unmarked) [ancymidole], in assay [1], the “Inhibition of mycelium growth” value is recorded as “only weakly” and the “Inhibition of the formation of 3-acetyldeoxynivalenol (3-ADON)” value is given as “only weakly”.

In the case of `C[N+](C)(C)CCCl.[Cl-]` [chlormequat chloride, 2-chloroethyltrimethylammonium chloride], in assay [2], the “Effect on the susceptibility of wheat ears to infection with Fusarium graminearum” value is recorded as “no direct effect”.

For the compound `CC(C)C(O)(c1ccc(OC(F)(F)F)cc1)c1cncnc1` (centres unmarked) [flurprimidole], in assay [1], the “Inhibition of mycelium growth” value is on record as “only weakly” and the “Inhibition of the formation of 3-acetyldeoxynivalenol (3-ADON)” value is “only weakly”.

Consider `CC1(C)CCC(Cc2ccc(Cl)cc2)C1(O)Cn1cncn1` (centres unmarked) [metconazole, reference compound], for which, in assay [3] (treatment date 10.6.), the “ZEA content of the grains” value is recorded as 53%, the “Infection (ears infected by Fusarium fungi)” value turned out to be 18% and the Grain yield is 108%. In assay [3] (treatment date 19.6.), the “ZEA content of the grains” value came out at 33%, the “Infection (ears infected by Fusarium fungi)” value is recorded as 18% and the Grain yield was found to be 110%.

Consider prohexadione-calcium, for which, in assay [4] (in vivo), the “Content of the grains of NIV” value is recorded as 75%. In addition, in assay [4] (relative to untreated = 100% (22.4 mg of DON per kg of harvested grains), 50 g/ha, Jun. 7, 2004), the “Content of the grains of DON” value is 81%. In addition, the Grain yield in assay [4] (relative to untreated = 100% (2.9 t/ha), 50 g/ha, Jun. 7, 2004) is 109%; in assay [3] (treatment date 10.6.) it was 98%; in assay [3] (treatment date 19.6.), 105%. The “Infection (ears infected by Fusarium fungi)” value was 91% in assay [4] (relative to untreated = 100% (43.8% of the ears infected), 50 g/ha applied Jun. 7, 2004 at beginning of flowering, assessed Jun. 28, 2004); 78% in assay [3] (treatment date 10.6.); 51% in assay [3] (treatment date 19.6.). In addition, the “Reduction of infection of wheat with mildew” value in assay [5] was “cannot be reduced”. Besides, the “ZEA content of the grains” value is listed as 23% in assay [3] (treatment date 10.6.) and 32% in assay [3] (treatment date 19.6.). Besides, in assay [3] (winter wheat Slade, Ulhówek 2004, no DON figures printed), the “DON content of the grains (statement in words)” value is “reduces the DON and ZEA contents considerably”.
